This passage reports cytotoxicity results from ChEMBL document CHEMBL3507680, “University of Dundee, Gates Library screen for HepG2 cell viability”.

This data set is described as follows: Human HepG2 cell viability assay in 384 well format. The format is toxicity, cell-based. Also on record: dose 125 nL, time 70.5 hour; cytotoxicity at 70.5 h: concentration not given beside the values. The conditions noted are these: HepG2 cells, read-out: Inhibition.
For the molecule `Cc1cc(-c2ccccc2C(=O)O)nc(C2CCCN(C(C)C)C2)n1` (centres undefined), the cytotoxicity at 70.5 h was -3.8%.
On to `Cc1cc(C(=O)N2CCCC2c2nc(O)cc(C(C)C)n2)on1` (centres undefined), for which the cytotoxicity at 70.5 h was -5.06%.
As for `Cc1nc(Nc2ccccn2)cc(C2CCCN2Cc2ncc[nH]2)n1` (centres undefined), the figure is -6.09%; as for `Cc1cc(-c2cccc(C(=O)O)c2)nc(C2CCN(C(C)C)CC2)n1`, -3.8%; as for `CC(C)N1CCC(Cc2cc(-c3cccc(C(=O)O)c3)ncn2)CC1`, -4.63%.
On to `CC(C)C(=O)N1CCC(Cc2nccnc2Nc2ccccn2)CC1`, for which the cytotoxicity at 70.5 h was -5.25%.
With `CC(=O)N1CCCC(c2ccc3sc(N)nc3n2)C1` (centres undefined), the cytotoxicity at 70.5 h was -8.18%.
For `O=C(c1ccncc1)N1CCC(Cc2cnc3[nH]ccc3c2)CC1`, the cytotoxicity at 70.5 h was -5.49%.
For `CNc1cccc(C2CCCN(C(=O)c3ccn(C)n3)C2)n1` (centres undefined), the cytotoxicity at 70.5 h was found to be 16.5%.
The same measure for `O=C(Cc1ccc2c(c1)CCCC2)N[C@@H]1CC[C@@H](n2ccnc2)[C@@H]1O`: -3.88%.
The same measure for `Cc1cc(-c2ccccc2C(=O)O)nc(C2CCCN(C)C2)n1` (centres undefined): -7.61%; for `Cc1ccccc1CNC(=O)c1ccccc1-n1cnc(CN)c1`: -0.745%.
The same measure for `O=C(c1ccccn1)N1CCC(Cc2cnc3[nH]ccc3c2)CC1`: -6.64%.
As for `COc1ccccc1-c1nccnc1C1CCN(C(C)=O)CC1`, the cytotoxicity at 70.5 h is -6.14%.
Consider `COCC(=O)N1CCOC(c2cccc(-c3cncnc3)n2)C1` (centres undefined), for which the cytotoxicity at 70.5 h was -5.56%.
The same measure for `CC(C)N1CCCC(Cc2cncc(Br)c2)CC1` (centres undefined): -4.98%; for `Cc1ccccc1-c1cncc(C2CCN(CCO)CC2)n1`: -8.45%.
Take `CCc1cc(O)nc(C2CCCN2C(=O)COC)n1` (centres undefined): the cytotoxicity at 70.5 h is -5.06%.
Consider `Cc1ncsc1-c1nnc(C2CCN(Cc3cccc(F)c3F)CC2)o1`, for which the cytotoxicity at 70.5 h came out at 38.7%.
The same measure for `CC(=O)N1CCCC1c1nc(C)no1` (centres undefined): 15.6%; for `CC(C)CC(=O)N1CCCC1c1nccnc1Nc1ncccn1` (centres undefined): 29.4%.
As for `CN(C)S(=O)(=O)N1CCC(c2cccc(Cc3ccccc3Cl)n2)CC1`, the figure is 18.2%; as for `Cc1ccc(CC2CCCN(S(C)(=O)=O)C2)nc1` (centres undefined), -9.35%; as for `CCC(=O)N1CCCC(c2ncc3c(n2)CCN(C)C3)C1` (centres undefined), -8.89%.
As for `CNc1cc(CNC(=O)c2ccncc2)nc(-c2ccncc2)n1`, the figure is -2.12%.
`CNc1cc(CNC(=O)c2ccnc(OC)c2)nc(-c2ccncc2)n1`: the cytotoxicity at 70.5 h came out at 11.8%.
Take `Cc1cc(C)nc(N2CCCC(c3cccc(-n4ccnc4)n3)C2)n1` (centres undefined): the cytotoxicity at 70.5 h is -5.86%.
In the case of `NC[C@H]1CC[C@H](C(NC(=O)CC2CCCCC2)c2ccccn2)CC1` (some centres undefined), the cytotoxicity at 70.5 h was -6.94%.
The same measure for `Cc1cc(C)nc(N2CCC(c3cncc(-n4ccnc4)n3)CC2)n1`: -6.63%; for `CC(=O)N1CCC(c2cc(C(F)(F)F)nc3nccn23)CC1`: -8.29%.
The same measure for `COCCN1CCCC1c1nccnc1Nc1nccs1` (centres undefined): -4.09%.
As for `COCCN1CCCC1c1nccnc1Nc1ncc(C)s1` (centres undefined), the figure is -1.57%; as for `Cc1ncncc1C(=O)N1CCCC(c2[nH]ncc2S(C)(=O)=O)C1` (centres undefined), -6.13%; as for `CO[C@H]1CN(Cc2ccc(F)c(F)c2)C[C@@]12CCCO2`, -2.35%.
In the case of `C[C@]1(O)CCN(Cc2cccnc2)C[C@@H]1Oc1cccc(F)c1`, the cytotoxicity at 70.5 h is -2.19%.
`Cn1cccc1C(=O)N1CCC(O)(CN2CCc3ccccc3C2)C1` (centres undefined): the cytotoxicity at 70.5 h is -4.98%.
`Cc1cc2cc(C(=O)N[C@@H]3CC[C@@H](N4CCNC(=O)C4)[C@@H]3O)ccc2o1`: the cytotoxicity at 70.5 h was -7.85%.
The same measure for `CCN(CC)S(=O)(=O)NCC1Cc2ccccc2O1` (centres undefined): -3.76%; for `O=C(COCC1CCCO1)N(Cc1cccnc1)c1ccc(F)cc1` (centres undefined): 2.18%.
The same measure for `CCN(C)Cc1cccc(CNC(=O)CSCc2ccncc2)c1`: -6.72%.
Turning to `CC(C(=O)NCC(C)(C)c1ccc(Br)cc1)n1cncn1` (centres undefined), the cytotoxicity at 70.5 h is -12.2%.
In the case of `Cc1nn(C)c(C)c1CCC(=O)NCC1(C(N)=O)CCOCC1`, the cytotoxicity at 70.5 h was -17.6%.
The same measure for `Cc1nc(C)n(CC2CCCN2c2ncnc3sc(C)c(C)c23)n1` (centres undefined): -3.31%; for `Cc1ncc2c(n1)CN(Cc1nc(-c3ccco3)oc1C)CC2`: -10.5%; for `Cc1nc(NCc2nnc(C)n2C)c2c(CC(C)C)csc2n1`: 0.805%.
The same measure for `CCC(C#N)NC(=O)c1sccc1OC` (centres undefined): -10.7%; for `COC(=O)CCN(C)C(=O)c1csc(Cc2ccccc2F)n1`: 0.501%.
The same measure for `CC1(C)CN(Cc2ccncc2)CCS1(=O)=O`: 24.1%; for `CN(C)CC(O)Cn1cc(NCc2ccc(Br)cc2)cn1` (centres undefined): -2.01%; for `N#Cc1ccc(Cl)cc1NCC1CCOC1` (centres undefined): -1.84%.
As to `CS(=O)(=O)CCCNc1cccc(COC2CCCCC2)c1`, the cytotoxicity at 70.5 h was -12.7%.
As for `Cc1ccc(CN2CCS(=O)(=O)C(C)(C)C2)cc1C`, the figure is 20.3%.
As for `CCCSCC(=O)NCc1cccc(CN(C)CC)c1`, the figure is -9.96%.
As for `COc1ccc(CNC(C)c2cnn(C)c2)cc1OC1CCCC1` (centres undefined), the figure is -3.45%; as for `Cc1ccc(=O)n(Cc2csc(N(C)C3CC3)n2)n1`, -10.2%.
On to `COc1ccc(Cl)cc1CS(=O)(=O)Cc1nc(C2CC2)no1`, for which the cytotoxicity at 70.5 h is -5.91%.
The same measure for `N#Cc1ccc(F)c(CN2CCc3sccc3C2)c1`: -5.04%; for `Cc1ccc(C(=O)NC(C)Cn2cccn2)c(=O)[nH]1` (centres undefined): 8.15%; for `Cc1ccc(C(=O)NCC(C)Cn2cccn2)c(=O)[nH]1` (centres undefined): -3.38%.
As for `CC1CN(C(=O)c2cnn(-c3ccccn3)c2C(C)C)CC(C)(C)O1` (centres undefined), the figure is -4.17%; as for `COc1c(Cl)cc(C(=O)NCc2n[nH]c(C)n2)cc1Cl`, 2.06%; as for `CCc1c(C(=O)N2CC(C)OC(C)(C)C2)cnn1-c1ccccn1` (centres undefined), -4.53%.
Consider `Cc1[nH]nc2ncc(C(=O)N3CCN(C(C)(C)C)CC3)cc12`, for which the cytotoxicity at 70.5 h was -0.02%.
As for `Cc1nnc2n1CCN(Cc1nc3ccccc3o1)C2`, the figure is -3.32%; as for `COc1ccc(Cl)cc1CS(=O)(=O)Cc1noc(C)n1`, 12.6%; as for `CCc1nnc2n1CCN(c1nc3ccccc3o1)C2`, -7.72%.
For `Cc1nnc2n1CCN(c1nc3ccccc3o1)C2`, the cytotoxicity at 70.5 h was determined as 1.55%.
For `Cc1noc(C(C)Nc2ccc3oc(=O)[nH]c3c2)n1` (centres undefined), the cytotoxicity at 70.5 h was -0.467%.
Take `COc1ccccc1C(=O)NCc1n[nH]c(C)n1`: the cytotoxicity at 70.5 h worked out at 0.0224%.
As for `Cc1nn(C)c(C)c1C1CCCN1Cc1nnc(C2CC2)n1C` (centres undefined), the figure is -1.77%; as for `Cc1[nH]nc2ncc(C(=O)N3CCN(CC(C)(C)O)CC3)cc12`, -0.78%; as for `O=C(CC1OCCc2ccccc21)NCCn1cccc1` (centres undefined), -4.75%.
The same measure for `Fc1ccc(OCCCNC2=NCCCN2)cc1`: -5.27%; for `c1ccc(OCCNC2=NCCCN2)cc1`: 24.2%.
